SMILES strings stand for the structures.

For the assay, the target named is T1, microsomal triglyceride transfer protein (MTP) (Mesocricetus auratus, UniProt P55158).
T1 construct: The supernatant comprising the soluble MTP is dialysed against Tris/HCl 150 mM; from tissue; host or cells: golden hamster liver microsomes, deoxycholate-solubilised supernatant, dialysed
T1 sequence (P55158 19-895): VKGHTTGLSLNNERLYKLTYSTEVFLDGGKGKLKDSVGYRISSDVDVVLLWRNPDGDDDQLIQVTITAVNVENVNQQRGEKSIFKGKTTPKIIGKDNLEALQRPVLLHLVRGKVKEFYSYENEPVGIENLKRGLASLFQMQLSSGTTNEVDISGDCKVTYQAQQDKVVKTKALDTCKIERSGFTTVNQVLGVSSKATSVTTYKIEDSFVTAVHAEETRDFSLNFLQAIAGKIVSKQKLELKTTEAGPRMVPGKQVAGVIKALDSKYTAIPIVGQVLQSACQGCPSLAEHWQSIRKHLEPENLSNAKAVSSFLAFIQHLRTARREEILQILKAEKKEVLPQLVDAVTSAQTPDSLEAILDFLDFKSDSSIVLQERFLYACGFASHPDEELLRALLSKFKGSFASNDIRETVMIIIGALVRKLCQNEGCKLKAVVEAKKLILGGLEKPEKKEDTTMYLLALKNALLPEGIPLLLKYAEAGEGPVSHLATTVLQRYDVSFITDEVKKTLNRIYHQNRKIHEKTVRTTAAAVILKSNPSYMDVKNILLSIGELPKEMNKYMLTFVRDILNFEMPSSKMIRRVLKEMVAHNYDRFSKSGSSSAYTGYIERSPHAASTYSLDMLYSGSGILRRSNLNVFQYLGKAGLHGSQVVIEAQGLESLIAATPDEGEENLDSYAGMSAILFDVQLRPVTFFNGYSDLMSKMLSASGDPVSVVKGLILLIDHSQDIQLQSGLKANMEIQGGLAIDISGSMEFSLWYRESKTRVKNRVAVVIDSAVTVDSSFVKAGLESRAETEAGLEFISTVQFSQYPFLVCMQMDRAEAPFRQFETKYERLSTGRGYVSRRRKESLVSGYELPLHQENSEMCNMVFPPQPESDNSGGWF
Briefly: Inhibition of MTP activity: transfer of [3H]-triolein from donor liposomes to biotinylated LDL, SPA. Format: biochemical. The note with it: MTP from golden hamster liver; incubation 18-24 hours at 37° C.; read-out: IC50, concentration that allows a 50% inhibition of MTP. Here is the method: Analysis of the Inhibition of MTP Activity
The inhibition of the activity of microsomal triglyceride transfer protein (MTP) was tested by using the following operating protocol.
The inhibition of MTP activity with a compound can be quantified by observing the inhibition of the transfer of a labelled triglyceride, from a donor particle to an acceptor particle, in the presence of MTP. The procedure for the preparation of MTP is based on the method by Wetterau and Zilversmit (Biochem. Biophys. Acta (1986) 875, 610). A few grams of golden hamster liver are taken and then rinsed several times in a 250 mM sucrose solution at 0° C. All the following steps proceed at +4° C. A homogenate at a concentration of 50% in 250 mM sucrose is prepared using a Teflon mill and then centrifuged for 10 minutes at 10 000×g at +4° C. The supernatant is then centrifuged at 105 000×g for 75 minutes at +4° C. The supernatant is discarded and the microsomal pellet is taken up in 3 ml (per g of starting liver) of Tris/HCl 150 mM pH 8.0. 1-ml aliquot fractions are stored at −80° C. until the time of use.
After thawing a fraction of microsomes (1 ml), 12 ml of refrigerated Tris/HCl 50 mM, KCl 50 mM, MgCl2 5 mM pH 7.4 buffers and 1.2 ml of deoxycholate (0.54% in water) are added. After incubation for 30 minutes at +4° C. with gentle agitation, the suspension is centrifuged at 105 000×g for 75 minutes. The supernatant comprising the soluble MTP is dialysed against Tris/HCl 150 mM, NaCl 40 mM, EDTA 1 mM, 0.02% sodium azide pH 7.4 buffer (5 times one litre over 2-3 days). The MTP is stored at +4° C., is stable for at least 30 days and is used in unmodified form in the test.
The donor particles (liposomes) are prepared from 208 μl of L-phosphatidylcholine at a concentration of 10 mg/ml in chloroform, and 480 μl of [3H]-triolein at a concentration of 0.5 mCi/ml in toluene. After stirring, the solution is evaporated under nitrogen, taken up in 6 ml of Tris/HCl 50 mM, KCl 50 mM, MgCl2 5 mM pH 7.4 buffer and incubated in an ultrasound bath for 30 minutes at room temperature. The liposomes are stored at +4° C. and sonicated again for 10 minutes before each use.
The acceptor particles are biotinylated low density lipoproteins (LDL-biot). These particles are supplied by the company Amersham.
The reaction mixture is prepared in untreated ½ well white plates (Corning Costar) by addition, in the following order, of: 5 μl of HEPES 50 mM, NaCl 150 mM, BSA 0.1% (w/v), 0.05% sodium azide (w/v), pH 7.4 buffer; 5 μl of liposome; 5 μl of LDL-biot; 5 μl of test products in DMSO; 5 μl of MTP. After incubation for 18-24 hours at 37° C., the reaction is stopped by adding 100 μl of Amersham SPA (Scintillation Proximity Assay) beads coupled to streptavidin, and the radioactivity is counted using a Top Count (Packard) machine at least one hour later. The inhibition of the transfer of the triglycerides with a compound is reflected by a reduction in the transferred radioactivity.
The results are expressed in terms of the IC50, i.e. the concentration that allows a 50% inhibition of MTP.
With `Cc1cccc(C(=O)Nc2cccc(OC3CCN(Cc4ccncc4)CC3)c2)c1-c1ccc(OC(F)(F)F)cc1` [Example 66, 6-methyl-N-[3-[[1-(4-pyridinylmethyl)-4-piperidinyl]oxy]phenyl]-4′-(trifluorometh-oxy)[1,1′-biphenyl]-2-carboxamide], the IC50 was 189 nM.

Take `COC(=O)CC(=O)N1CCC(Oc2cccc(NC(=O)c3ccccc3-c3ccc(OC(F)(F)F)cc3)c2)CC1` [Example 125, methyl β-oxo-4-[3-[[[4′-(trifluoromethoxy)-[1,1′-biphenyl]-2-yl]carbonyl]amino]-phenoxy]-1-piperidinepropanoate]: the IC50 was determined as 252 nM.

For the molecule `Cc1cccc(C(=O)Nc2cccc(OC3CCN(C(=O)Nc4cccc(C#N)c4)CC3)c2)c1-c1ccc(OC(F)(F)F)cc1` [Example 37, N-(3-cyanophenyl)-4-[3-[[[6-methyl-4′-(trifluoromethoxy)[1,1′-biphenyl]-2-yl]-carbonyl]amino]phenoxy]-1-piperidine-carboxamide], the IC50 was determined as 65.2 nM.

Turning to `CC(C)(C)OC(=O)N1CCC(Oc2cccc(NC(=O)c3ccccc3-c3ccc(OC(F)(F)F)cc3)c2)CC1` [Example 67, 1,1-dimethylethyl 4-[3-[[[4′-(trifluorometh-oxy)[1,1′-biphenyl]-2-yl]carbonyl]amino]-phenoxy]-1-piperidinecarboxylate], the IC50 stood at 234 nM. On to `O=C(Nc1cccc(OC2CCN(C(=O)c3cccnc3)CC2)c1)c1ccccc1-c1ccc(OC(F)(F)F)cc1` [Example 118, N-[3-[[1-(3-pyridinylcarbonyl)-4-piperidin-yl]oxy]phenyl]-4′-(trifluoromethoxy)[1,1′-biphenyl]-2-carboxamide], for which the IC50 is 202 nM. Turning to `Cc1cccc(C(=O)Nc2cccc(OC3CCN(Cc4ccccc4)CC3)c2)c1-c1ccc(OC(F)(F)F)cc1` [Example 58, [1,1′-biphenyl]-6-methyl-N-[3-[[1-(phenyl-methyl)-4-piperidinyl]oxy]phenyl]-4′-(trifluoromethoxy)-2-carboxamide], the IC50 was found to be 74.1 nM. Take `Cc1cccc(C(=O)Nc2cccc(OC3CCN(C(=O)Nc4cccc(C(F)(F)F)c4)CC3)c2)c1-c1ccc(OC(F)(F)F)cc1` [Example 24, 4-[3-[[[6-methyl-4-(trifluoromethoxy)[1,1′-4-biphenyl]-2-yl]carbonyl]amino]phenoxy]-N-[3-(trifluoromethyl)phenyl]-1-piperidine-carboxamide]: the IC50 was determined as 459 nM. Turning to `Cc1cccc(C(=O)Nc2cccc(OC3CCN(C(=O)NC4CCCC4)CC3)c2)c1-c1ccc(OC(F)(F)F)cc1` [Example 57, N-cyclopentyl-4-[3-[[[6-methyl-4′-(trifluoro-methoxy)[1,1′-biphenyl]-2-yl]carbonyl]-amino]phenoxy]-1-piperidinecarboxamide], the IC50 amounted to 187 nM. On to `Cc1cccc(C(=O)Nc2cccc(OC3CCN(CC4CCOC4)CC3)c2)c1-c1ccc(OC(F)(F)F)cc1` (stereo not shown) [Example 78, 6-methyl-N-[3-[[1-[(tetrahydro-3-furanyl)-methyl]-4-piperidinyl]oxy]phenyl]-4′-(tri-fluoromethoxy)[1,1′-biphenyl]-2-carbox-amide], for which the IC50 is 447 nM. For `CCOC(=O)CCC(=O)N1CCC(Oc2cccc(NC(=O)c3ccccc3-c3ccc(OC(F)(F)F)cc3)c2)CC1` [Example 139, ethyl γ-oxo-4-[3-[[[4′-(trifluoromethoxy)-[1,1′-biphenyl]-2-yl]carbonyl]amino]-phenoxy]-1-piperidinebutanoate] the value was 309 nM. Next, `Cc1ccc(C(=O)N2CCC(Oc3cccc(NC(=O)c4ccccc4-c4ccc(OC(F)(F)F)cc4)c3)CC2)cc1` [Example 130, N-[3-[[1-(4-methylbenzoyl)-4-piperidinyl]-oxy]phenyl]-4′-(trifiuoromethoxy)[1,1′-biphenyl]-2-carboxamide]: 219 nM; `CCOC(=O)CCC(=O)N1CCC(Oc2cccc(NC(=O)c3cccc(C)c3-c3ccc(OC(F)(F)F)cc3)c2)CC1` [Example 96, ethyl 4-[3-[[[6-methyl-4′-(trifluoromethoxy)-[1,1′-biphenyl]-2-yl]carbonyl]amino]-phenoxy]-γ-oxo-1-piperidinebutanoate]: 128 nM; `CC(C)(C)C(=O)N1CCC(Oc2cccc(NC(=O)c3ccccc3-c3ccc(OC(F)(F)F)cc3)c2)CC1` [Example 140, N-[3-[[1-(2,2-dimethyl-1-oxopropyl)-4-piperidinyl]oxy]phenyl]-4′-(trifluorometh-oxy)[1,1′-biphenyl]-2-carboxamide]: 176 nM. For the molecule `COc1ccc(CC(=O)N2CCC(Oc3cccc(NC(=O)c4ccccc4-c4ccc(OC(F)(F)F)cc4)c3)CC2)cc1OC` [Example 110, N-[3-[[1-[2-(3,4-dimethoxyphenyl)acetyl]-4-piperidinyl]oxy]phenyl]-4′-(trifluoro-methoxy)[1,1′-biphenyl]-2-carboxamide], the IC50 was found to be 469 nM. Consider `Cc1cccc(C(=O)Nc2cccc(OC3CCN(C(=O)c4ccc([N+](=O)[O-])cc4)CC3)c2)c1-c1ccc(OC(F)(F)F)cc1` [Example 114, 6-methyl-N-[3-[[1-(4-nitrobenzoyl)-4-piperidinyl]oxy]phenyl]-4′-(trifluorometh-oxy)[1,1′-biphenyl]-2-carboxamide], for which the IC50 is 202 nM. For `COc1ccc(CC(=O)N2CCC(Oc3cccc(NC(=O)c4cccc(C)c4-c4ccc(OC(F)(F)F)cc4)c3)CC2)cc1OC` [Example 105, N-[3-[[1-[2-(3,4-dimethoxyphenyl)-acetyl]-4-piperidinyl]oxy]phenyl]-6-methyl-4′-(trifluoromethoxy)[1,1′-biphenyl]-2-carboxamide], the IC50 was found to be 207 nM. `CC(=O)OCC(=O)N1CCC(Oc2cccc(NC(=O)c3ccccc3-c3ccc(OC(F)(F)F)cc3)c2)CC1` [Example 126, N-[3-[[1-[2-(acetyloxy)acetyl]-4-piperidin-yl]oxy]phenyl]-4′-(trifluoromethoxy)[1,1′-biphenyl]-2-carboxamide]: the IC50 came to 91.2 nM. As to `COc1ccc(C(=O)N2CCC(Oc3cccc(NC(=O)c4ccccc4-c4ccc(OC(F)(F)F)cc4)c3)CC2)cc1OC` [Example 104], the IC50 is 294 nM.

Regarding `Cc1cccc(C(=O)Nc2cccc(OC3CCN(C(=O)NC4CCCCC4)CC3)c2)c1-c1ccc(OC(F)(F)F)cc1` [Example 34, N-cyclohexyl-4-[3-[[[6-methyl-4′-(trifluoro-methoxy)[1,1′-biphenyl]-2-yl]carbonyl]-amino]phenoxy]-1-piperidinecarboxamide], the IC50 was found to be 296 nM.
